Calls of active or inactive are those of the source.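 The calls were made as follows: active = compounds giving half or more protection of infected cells from virus-caused growth loss, again on retest; inactive = the rest.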
Tested on: CEM cells HIV-1 protection, formazan growth assay
Test: NCI AIDS Antiviral Assay
Settings: for IC50: measured here: growth of uninfected CEM cells
Summary of the method: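 CEM (human) cells, HIV-1 infected vs uninfected, 5-point dosing, formazan growth read-out. Retest threshold 50% protection.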

Row | SMILES | EC50 | IC50 | outcome
1 | NC(=O)C(F)C(N)=O | > 200 µM | > 200 µM | 
2 | CC1=Nn2c(nc3sc4c(c3c2=O)CCCC4)SC1 |  |  | inactive
3 | O=C1c2cccn2-c2ccccc2SC1c1ccccc1 (stereo unspecified) | > 200 µM | 20.4 µM | 
4 | OCC(Cn1cncn1)(c1ccc(F)cc1F)n1cncn1 (stereo unspecified) | > 200 µM | > 200 µM | 
5 | Nc1ccc(C(=O)N/C(=C\C=C\c2ccco2)c2nc3[nH]c(=S)[nH]c(=O)c3[nH]2)cc1 |  |  | inactive
6 | CSC1OC(C)(C)OC1=O (stereo unspecified) | > 200 µM | > 200 µM | 
7 | CC(C)=CCC[C@@H](C)C1=CC(=O)C(C)=C(O)C1=O | > 2 µM | 1.02 µM | 
8 | O=C1C[C@@]23CCC4(CC2=CCC[C@H]3O1)OCCO4 |  |  | inactive
9 | COc1cc(/C=C/C(=O)CC(=O)/C=C/c2ccc(O)c(O)c2)ccc1O | > 200 µM | 6.76 µM | 
10 | CN1COc2c(nc(-c3ccccc3)[nH]c2=O)C1 | > 1020 µM | 61.7 µM | 
11 | CCCCCC(O)C1C(=O)OC(C)C(O)/C=C/C=C/C=C/C=C\C=C(\C)C(O)CC(O)CC(O)CC(O)CC(O)CC(O)CC1O (stereo unspecified) | > 200 µM | > 200 µM | 
12 | C[C@H](NC(=O)CNC(=O)CCCCCC(=O)NCC(=O)N[C@@H](C)C(=O)OCc1ccccc1)C(=O)OCc1ccccc1 | > 200 µM | > 100 µM | 
13 | NS(=O)(=O)c1ccc(NNc2c3ccccc3nc3ccccc23)cc1 | > 200 µM | 10.7 µM | 
14 | O=S1(=O)OC(c2cc(Cl)c(O)c(Br)c2)(c2cc(Cl)c(O)c(Br)c2)c2ccccc21 | 380 µM | 501 µM | 
15 | C[C@]12Cc3conc3C(O)=C1CC[C@@H]1C2CC[C@@]2(C)C1CC[C@]2(C)O (stereo partly specified) |  |  | inactive
16 | O=C(C#CP(=O)(O)c1ccccc1)c1ccccc1 | > 200 µM | > 200 µM | 
17 | O=C1Nc2ccccc2/C1=c1/sc2nc3ccccc3n2c1=O |  |  | inactive
18 | Cc1cc(S(=O)(=O)n2ccnc2Oc2cccc(Cl)c2)c(SSc2cc(Cl)c(C)cc2S(=O)(=O)n2ccnc2Oc2cccc(Cl)c2)cc1Cl | 8.13 µM | 13.8 µM | 
19 | ON=C1/C(=N\O)CCC/C1=N/O | > 1050 µM | 19.1 µM | 
20 | O=C(CCCN1CCC(C(=O)c2ccc(F)cc2)CC1)c1ccc(F)cc1 | > 24.5 µM | > 24.5 µM | 
21 | CC(=O)OC1C(CNC(=O)N(C)N=O)OC(OC2(CNC(=O)N(C)N=O)OC(CNC(=O)N(C)N=O)C(OC(C)=O)C2OC(C)=O)C(OC(C)=O)C1OC(C)=O (stereo unspecified) | > 27.5 µM | > 27.5 µM | 
22 | CC(=O)O[C@@H]1CC[C@@]2(C)C(CC[C@H]3[C@@H]4CC[C@H]([C@H](C)CCc5nc6ccc(C)cc6[nH]5)[C@@]4(C)CC[C@@H]32)C1 (stereo partly specified) | > 200 µM | 16.6 µM | 
23 | CC1=C2CCCCCC2(O)OC1=O (stereo unspecified) | > 646 µM | > 646 µM | 

Row | SMILES | EC50 | IC50 | outcome
24 | O=c1scc(-c2ccc(C(F)(F)F)cc2)s1 | > 85.1 µM | > 85.1 µM | 
25 | COc1ccc(N2C(=O)C3c4[nH]c5ccc(OC)cc5c4C4CCC(C(C)(C)C)CC4C3C2=O)cc1 (stereo unspecified) | > 14.8 µM | > 14.8 µM | 
26 | CCCn1c(SC)nc(COC(=O)NC)c1COC(=O)NC | > 200 µM | > 200 µM | 
27 | COc1c(O)c(O)cc2c1-c1ccc(OC)c(=O)cc1C(NC(C)=O)CC2 (stereo unspecified) | > 200 µM | 1.05 µM | 
28 | COC(=O)Oc1nn(C(=O)OC)c(=O)c2ccccc12 (tested in a mixture with another compound) | > 200 µM | > 200 µM | 
29 | N#CC1(C#N)C2CCCCC23OC(=N)C1(C#N)C(c1ccccc1)O3 (stereo unspecified) | > 200 µM | 5.62 µM | 
30 | O=C(c1ccccc1F)c1c(NCc2ccccc2)c(=O)c1=O | 53.7 µM | 102 µM | 
31 | COC(=O)c1[nH]c(=O)c(C#N)c(C(=O)OC)c1C(=O)/C=C/c1ccccc1 | > 51.3 µM | > 51.3 µM | 
32 | C=CCNC(=S)N1CC(C)C(=O)Nc2ccccc21 (stereo unspecified) | > 661 µM | > 661 µM | 
33 | CC1=C(N2CCOCC2)C(N2CCOCC2)=C(C)C(=O)C1=O | > 200 µM | 14.5 µM | 
34 | Cn1ccnc1CCc1c(Cl)cccc1Cl | > 851 µM | 123 µM | 
35 | CCOC(=O)/C(C#N)=C\c1ccc([N+](=O)[O-])o1 | > 1050 µM | > 1050 µM | 
36 | O=S(=O)(O)c1cc[c]([Sb](=[O])([OH])[OH])cc1 | 0.661 µM | 398 µM | 
37 | N#Cc1nc(C(F)(F)F)oc1N |  |  | inactive
38 | CCOC(=O)C1C(c2ccc3c(c2)OCO3)c2c([nH][nH]c2=O)CC1(O)OCC (stereo unspecified) | > 200 µM | > 200 µM | 
39 | COc1ccc(C2=[S+]C(c3ccccc3)(c3ccccc3)c3ccccc32)cc1 |  |  | inactive
40 | CC1(c2ccc(F)cc2)OC(=O)c2c1ccc1ccccc21 (stereo unspecified) |  |  | inactive
41 | CCOC(=O)Nc1nn(-c2ccc3ccccc3n2)c(=O)[nH]1 | > 63.1 µM | 10 µM | 
42 | CC(C)C(=O)/C=C/c1c(Cl)cccc1Cl |  |  | inactive
43 | COc1cc(/C=C/C(=O)/C=C/c2cc(OC)c(OC)c(OC)c2)cc(OC)c1OC | > 200 µM | 0.0977 µM | 
44 | CC(Cc1ccccc1)Nc1ncnc2c1ncn2C1OC(CO)CC1O (stereo unspecified) |  |  | inactive
45 | [C-]#[N+][C@@H]1C2C([C@@]3(C)CCC(C(C)(C)[N+]#[C-])O3)CC[C@](C)([N+]#[C-])[C@H]2CC[C@@]1(C)O (stereo partly specified) |  |  | inactive
46 | CC1=CC(=O)/C(=C/N2C(=O)CNC2=S)C(=O)O1 | > 200 µM | > 200 µM | 

Row | SMILES | EC50 | IC50 | outcome
47 | Cc1nc(N)sc1C(=O)/C=C\c1ccc2c(c1)OCO2 | > 871 µM | 437 µM | 
48 | O=S(=O)(SS(=O)(=O)c1ccccc1)c1ccccc1 | > 115 µM | > 115 µM | 
49 | COc1ccc(C[C@@H]2Cc3cc(OC)c(OC)cc3CN2C)cc1 | > 692 µM | 45.7 µM | 
50 | Cc1ccc2c(c1)SCc1c-2[nH]c2ccccc12 |  |  | inactive
51 | COc1ccc(N=NC(=O)NC(CC(C)C)C(=O)NC(CC(C)C)C(=O)O)cc1 (stereo unspecified) | > 200 µM | 7.24 µM | 
52 | [O-]c1on[n+]2c1Cc1ccccc1C2 | > 200 µM | > 200 µM | 
53 | CO/C(=N\N=C\c1ccc(OC)c(OC)c1)c1ccncc1 | > 437 µM | 295 µM | 
54 | CCCC[C@H]1C(=O)O[C@H](C)[C@H](NC(=O)c2cccc(NC=O)c2O)C(=O)O[C@@H](C)[C@@H]1OC(=O)CC(C)C | > 1 µM | 0.0389 µM | 
55 | CC1(C)CC(C)(C)C1=NNC(N)=O | > 200 µM | > 200 µM | 
56 | N#C/C(=C/NC(N)=S)C(N)=O | > 200 µM | > 200 µM | 
57 | NC(=O)NCCSC1CCCCC1O (stereo unspecified) | > 200 µM | > 200 µM | 
58 | O=C1c2ccccc2Sc2ccccc2N1CCN1CCN(c2ccc(F)cc2)CC1 | > 200 µM | > 200 µM | 
59 | COc1ccccc1OS(=O)(=O)c1ccc(C)cc1 |  |  | inactive
60 | CCOC1N=C(c2ccccc2)c2cc(Cl)ccc2NC1=O (stereo unspecified) | > 22.9 µM | > 22.9 µM | 
61 | N#C/C(=C\c1cccc(Cl)c1Cl)c1ccccc1 | > 24.5 µM | > 24.5 µM | 
62 | CCOC(=O)c1cccc(=O)c(C(=O)OCC)c1 |  |  | inactive
63 | CCOc1ccc(-n2c(=O)n3c(Nc4ccc(Cl)cc4)nc4c(c(=O)n(C)c(=O)n4C)n3c2=O)cc1 | > 100 µM | 66.1 µM | 
64 | O=c1c2ccccc2n2c(-c3ccccc3O)nnc2n1-c1ccccc1 | > 200 µM | > 200 µM | 
65 | Cc1cc(Br)cc(C)c1NC(=O)C(=O)CC(=O)c1sc(-n2nc(-c3ccccc3)cc2-c2ccccc2)nc1C |  |  | inactive
66 | CCC(=O)C(CCN1CCC2(CCCc3ccccc32)CC1)(c1ccccc1)c1ccccc1 | > 200 µM | 6.61 µM | 
67 | CC(C)(C)OC(=O)NCCc1ccc(N)cc1 | > 200 µM | 158 µM | 
68 | CN1C(=O)C2(Nc3ccccc3N2)c2ccccc21 | > 70.8 µM | > 70.8 µM | 
69 | COC(=O)C(C)(C)NC(=O)C(Cc1ccccc1)Nc1ncnc2c1ncn2-c1ccc(OC)cc1 (stereo unspecified) |  | 56.2 µM | inactive

Row | SMILES | EC50 | IC50 | outcome
70 | CC(=S)NNC(=O)c1ccncc1 | > 1290 µM | 135 µM | 
71 | O=c1[nH]cc(CCl)c(=O)[nH]1 | > 200 µM | > 200 µM | 
72 | CC1(C)OCN(c2ccc(S(N)(=O)=O)cc2)Cn2c1nc1ccccc12 | > 200 µM | 117 µM | 
73 | O=C(CSc1nnc(Cc2ccccc2)o1)Nc1ccc([N+](=O)[O-])cc1 | > 97.7 µM | 95.5 µM | 
74 | CC1(C)COC(c2c(-c3ccccc3)noc2CS(=O)c2ccccc2)=N1 (stereo unspecified) | > 100 µM | 42.7 µM | 
75 | COc1ccc(Cl)cc1C(=O)c1cc(Cl)cc(S(=O)(=O)OC)c1OC | > 24.5 µM | > 24.5 µM | 
76 | Cc1[nH]c(=O)nc(CC(O)(c2ccccc2)c2ccccc2)c1-c1ccccc1 | > 2.75 µM | > 2.75 µM | 
77 | CC(C)/C(Cl)=N\OC(=O)Nc1ccc(S(N)(=O)=O)cc1 | > 200 µM | 9.77 µM | 
78 | O=C(NNc1nc(-c2ccccc2)cs1)Nc1ccccc1 | > 200 µM | 40.7 µM | 
79 | Nc1nnnn1NC(=O)NCCCl | > 200 µM | > 200 µM | 
80 | CCCCCC(O)[C@H]1C(=O)C[C@@H](O[Si](C)(C)C(C)(C)C)[C@@H]1/C=C/CCOCc1ccccc1 (stereo partly specified) |  |  | inactive
81 | N=C(N)N1CCC(N2CCOCC2)CC1 | > 200 µM | > 200 µM | 
82 | CC(=O)NC1C(O)OC(CO)C(OC2OC(CO)C(O)C(O)C2NC(=O)NCCCCCCNC(=O)n2cc(F)c(=O)[nH]c2=O)C1O (stereo unspecified) |  |  | inactive
83 | O=C1CCC2(CC1CC(Sc1ccccc1)Sc1ccccc1)OCCO2 (stereo unspecified) | > 200 µM | 41.7 µM | 
84 | SCc1ccc(-c2ccc(CS)cc2)cc1 | > 4.27 µM | > 4.27 µM | 
85 | CC1(C)CNC[C@](C)(OCCO)C(=O)[N-]C(C)(C)CNC[C@@](C)(OCCO)C(=O)[N-]1.[Ni+2] | > 200 µM | 182 µM | 
86 | C/C=C1/CN2CC[C@]34C=C(CO)C1CC23Nc1ccccc14 (stereo partly specified) | > 123 µM | > 123 µM | 
87 | CCCC[As](CCCC)SC1CCC2(C)C(=CCC3C4CCC(=O)C4(C)CCC32)C1 (stereo unspecified) | > 46.8 µM | 15.8 µM | 
88 | [C-]#[O+].[C-]#[O+].[C-]#[O+].[C-]#[O+].[Mo].c1ccc(P(CCP(CCP(c2ccccc2)c2ccccc2)c2ccccc2)CCP(c2ccccc2)c2ccccc2)cc1 (stereo unspecified) | > 0.617 µM | > 0.617 µM | 
89 | CC(=O)NNc1nc(C)c(C(/C=C/c2ccccc2O)=N/NC(=O)c2ccncc2)s1 | > 22.4 µM | > 22.4 µM | 

Source: PubChem BioAssay AID179 (DTP/NCI, 2004)
